“Also recorded” adds a separate entry of the source.
System: advanced and/or metastatic cancers
Assay: Antitumor activity
Type: in vivo, human
[1] = Breast cancer treated population, 150 mg (n1 = 10)
[2] = Breast cancer treated population, 200 mg (n1 = 11)
[3] = Breast cancer treated population, Total (n1 = 21)
[4] = Overall population, 150 mg (n = 12)
[5] = Overall population, 200 mg (n = 13)
[6] = Overall population, Total (n = 25)

CCN1CCN(Cc2ccc(Nc3ncc(F)c(-c4cc(F)c5nc(C)n(C(C)C)c5c4)n3)nc2)CC1 [abemaciclib]
Confirmed responder (150 mg cohort): 1 | Patients achieving PR (1 patient in each dose cohort): 2 patients | Best overall response: Complete response (CR) [1]: 0 n (%) | Best overall response: Partial response (PR) [1]: 1 (10.0) n (%) | Best overall response: Progressive disease (PD) [1]: 2 (20.0) n (%) | Disease control rate (CR+PR+SD) [1]: 7 (70.0) n (%) | Overall response rate (CR+PR) [1]: 1 (10.0) n (%) | Best overall response: Complete response (CR) [2]: 0 n (%) | Best overall response: Partial response (PR) [2]: 1 (9.1) n (%) | Best overall response: Progressive disease (PD) [2]: 1 (9.1) n (%) | Disease control rate (CR+PR+SD) [2]: 9 (81.8) n (%) | Overall response rate (CR+PR) [2]: 1 (9.1) n (%) | Best overall response: Complete response (CR) [3]: 0 n (%) | Best overall response: Partial response (PR) [3]: 2 (9.5) n (%) | Best overall response: Progressive disease (PD) [3]: 3 (14.3) n (%) | Disease control rate (CR+PR+SD) [3]: 16 (76.2) n (%) | Overall response rate (CR+PR) [3]: 2 (9.5) n (%) | Best overall response: Complete response (CR) [4]: 0 n (%) | Best overall response: Partial response (PR) [4]: 1 (8.3) n (%) | Best overall response: Progressive disease (PD) [4]: 2 (16.7) n (%) | Disease control rate (CR+PR+SD) [4]: 8 (66.7) n (%) | Overall response rate (CR+PR) [4]: 1 (8.3) n (%) | Best overall response: Complete response (CR) [5]: 0 n (%) | Best overall response: Partial response (PR) [5]: 1 (7.7) n (%) | Best overall response: Progressive disease (PD) [5]: 2 (15.4) n (%) | Disease control rate (CR+PR+SD) [5]: 9 (69.2) n (%) | Overall response rate (CR+PR) [5]: 1 (7.7) n (%) | Best overall response: Complete response (CR) [6]: 0 n (%) | Best overall response: Partial response (PR) [6]: 2 (8.0) n (%) | Best overall response: Progressive disease (PD) [6]: 4 (16.0) n (%) | Disease control rate (CR+PR+SD) [6]: 17 (68.0) n (%) | Overall response rate (CR+PR) [6]: 2 (8.0) n (%) | Complete response (CR) (all treated patients (n = 25)): No complete response was observed; also recorded: no CR was observed | Disease control rate (DCR) (all treated patients (n = 25)): 68% | Patients achieving partial response (PR) (all treated patients (n = 25)): 8%
